How the values were obtained:
[1] = target: T1, 17-beta-hydroxysteroid dehydrogenase type 1 (Homo sapiens) (UniProt P14061); experiment: Compound was tested for the inhibition of 17-beta-hydroxysteroid dehydrogenase type 1(17-beta-HSD type 1) at 1 uM concentration
T1 sequence (whole entry): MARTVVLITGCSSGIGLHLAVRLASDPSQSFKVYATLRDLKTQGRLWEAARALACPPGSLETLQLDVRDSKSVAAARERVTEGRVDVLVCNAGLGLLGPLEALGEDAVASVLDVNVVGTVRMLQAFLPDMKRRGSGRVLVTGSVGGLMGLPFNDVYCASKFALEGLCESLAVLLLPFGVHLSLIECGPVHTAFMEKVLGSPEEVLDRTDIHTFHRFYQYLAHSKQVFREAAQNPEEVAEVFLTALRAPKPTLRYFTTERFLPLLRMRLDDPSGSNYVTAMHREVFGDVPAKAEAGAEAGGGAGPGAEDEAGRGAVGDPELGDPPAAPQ

[2] = target: T2, 17-beta-hydroxysteroid dehydrogenase type 1 (Homo sapiens, UniProt P14061); experiment: Compound was tested for the inhibition of 17-beta-hydroxysteroid dehydrogenase type 1(17-beta-HSD type 1)
T2 sequence (P14061 whole entry): T1 sequence (whole entry)

[3] = target: T1, 17-beta-hydroxysteroid dehydrogenase type 1 (Homo sapiens); experiment: Compound was tested for the inhibition of 17-beta-hydroxysteroid dehydrogenase type 1(17-beta-HSD type 1) at 10 uM concentration

Compound | inhibition [1] [%] | IC50 [2] [nM] | inhibition [3] [%]
C[C@]12CC[C@@H]3c4ccc(O)cc4CC[C@H]3[C@@H]1C[C@@H](CCCBr)[C@@H]2O | 70 | 460 | 94
CCC[C@@H]1C[C@H]2[C@@H]3CCc4cc(O)ccc4[C@H]3CC[C@]2(C)[C@H]1O | 29 |  | 69
C[C@]12CC[C@@H]3c4ccc(O)cc4CC[C@H]3[C@@H]1C[C@@H](CCCCl)[C@@H]2O | 88 | 1000 | 92
C[C@]12CC[C@@H]3c4ccc(O)cc4CC[C@H]3[C@@H]1C[C@@H](CCCI)[C@@H]2O | 68 | 420 | 92
C[C@]12CC[C@@H]3c4ccc(O)cc4CC[C@H]3[C@@H]1C[C@@H](CCCF)[C@@H]2O | 49 | 4300 | 81

More lines, now with the values ahead:

inhibition [1] [%] | IC50 [2] [nM] | inhibition [3] [%] | Compound
82 | 1150 | 95 | C[C@]12CC[C@@H]3c4ccc(O)cc4CC[C@H]3[C@@H]1C[C@@H](CCCSC#N)[C@@H]2O
26 |  | 63 | C=CC[C@@H]1C[C@H]2[C@@H]3CCc4cc(O)ccc4[C@H]3CC[C@]2(C)[C@H]1O
17 |  | 57 | C[C@]12CC[C@@H]3c4ccc(O)cc4CC[C@H]3[C@@H]1C[C@@H](CCCO)[C@@H]2O

Source: ChEMBL document CHEMBL1127765, “16-propyl derivatives of estradiol as inhibitors of 17-hydroxysteroid dehydrogenase type 1” (Bioorg Med Chem Lett, 1994)
